In patent US20050170345A1, “Neuroglobin is up-regulated by and protects neurons from hypoxic-ischemic injury” (priority 2001, published 2005):
“Also recorded” adds a separate entry of the source.

Columns and labels:
K562 cells = conditions: 50 μM hemin for 2-3 days; cited from earlier work
Ngb protein = Ngb protein expression in HN33 cells (Western blot); type: cell-based, mouse
Protocol: (§1) HN33 cells were cultured as described (Lee et al. (1990) J Neurosci. 10: 1779-1787; Shi et al. (1998) J Neurochem., 70:1035-1044; Jin et al. (2000) Proc Nati Acad Sci USA., 97:10242-10247). Cells were plated at 4×10^5 cells/well onto uncoated, 6-well plastic culture dishes in Dulbecco's modified Eagle's medium containing 10% (v/v) fetal bovine serum, 100 units/ml of penicillin and 100 μg/ml of streptomycin, and maintained at 37° C. in humidified 95% air/5% CO2. Cells were treated with hemin (typically 50 μM) or 8-Br-cGMP (10 μM) for up to 3 days, without daily replacement. To suppress sGC or PKG activity, cells were pretreated for 1 hour with inhibitors before adding other reagents.
Cells were washed twice in PBS, and whole-cell extracts were prepared by adding 10 volumes of 1× sample buffer containing 2% SDS, 100 mM dithiothreitol, 60 mM Tris (pH 6.8) and 10% glycerol, and boiled for 5 minutes. Protein concentrations were determined using Bradford Protein Assays (Bio-Rad, Hercules, Calif.); 30 μg of protein was analyzed by 12% or 15% SDS-PAGE and transferred to Immuno-Blot PVDF membranes (Bio-Rad). Membranes were probed with affinity-purified anti-Ngb antibody, which was produced by immunizing with a synthetic peptide corresponding to amino-acids 35-50 (NH2-CLSSPEFLDHIRKVML-COOH, (SEQ ID NO:11) of mouse Ngb (Sun et aL (2001 Proc Natl Acad Sci USA. 98:15306-15311),and the signal was detected with Boehringer Mannheim chemiluminescence blotting kits. Differences in protein expression on Western blots were quantified using a GS-710 calibrated imaging densitometer and Quantity One software (Bio-Rad).

Ngb mRNA = Ngb mRNA expression in HN33 cells (RT-PCR, quantitative RT-PCR, Northern blot); type: cell-based, mouse
Protocol: as §1
RT-PCR and Northern blot analyses were carried out as described previously (Zhu and Zhang (1999) Biochem Biophys Res Commun., 258:87-93). Briefly, total RNA from treated and untreated cells was extracted using a RNeasy Mini Kit (QIAGEN Operon, Valencia, Calif.), and DNA-free total RNA (2 μg per sample) was reverse-transcribed into first-strand cDNA using the Reverse Transcription System and Oligo-dT12-18 (GIBCO-BRL, Rockville, Md.) (Id.). Sequences of the primers used for PCR amplification were: Ngb forward, 5′ CTCTGGAACATGGCACTGTC 3′ (nt 135-154, SEQ ID NO:7); Ngb reverse, 5′ GCACTGGCTCGTCTCTTACT 3′ (nt 547-528, SEQ ID NO:8); β-actin forward, 5′ CACAGGCATTGTGATGGACTC 3′ (nt 524-544, SEQ ID NO:9); β-actin reverse, 5′ GCTCAGGAGGAGCAATGATCT 3′ (nt 582-563, (SEQ ID NO:10). Primers were designed based on the published sequences of these genes and were synth esized by QIAGEN Operon. All PCR primer pairs gave rise to only one discrete band of the expected size. PCR reactions were carried out in a total volume of 25 μl containing 2 μl cDNA, 1×PCR buffer (Boehringer Mannheim, Mannheim, FRG), 200 μM dNTPs, 0.6 U Taq DNA polymerase (Boehringer Mannheim), and 0.2 μM primers. The optimal conditions for amplification (temperature and cycle number) were determined experimentally according to previously published procedures (Id.). Different ratios of Ngb to b-actin primer pairs were tested to ensure that Ngb and b-actin were amplified with similar efficiency, and a kinetic study was undertaken to establish the number of cycles sufficient to detect both Ngb and b-actin without reaching saturation for either. The parameters chosen for PCR amplification were 95° C. for 1 minute, 57° C. for 45 seconds, 72° C. for 1 minute for 25-30 cycles, and a final incubation at 72° C. for 10 minutes. PCR products were separated on 1.2% agarose gels, visualized by ethidium bromide staining, and quantified using a ChemiImage System (Alpha Innotech Corporation, San Leandro, Calif.).
For Northern blotting, 15 μg of total RNA from each sample was fractionated on 1% formaldehyde/agarose gels and transferred to Hybond-N nylon membranes (Amersham Pharmacia, Piscataway, N.J.). Filters were hybridized with probes for Ngb MRNA, and β-actin mRNA at 68° C. in hybridization buffer (Clontech, Palo Alto, Calif.). ^32P-radiolabeled DNA probes were synthesized using cDNA obtained from RT-PCR amplification.
Quantitative RT-PCR analysis was carried out as described previously.8 PCR reactions were carried out in a total volume of 25 μl containing 1 μI cDNA, 1×PCR buffer (Boehringer Mannheim), 200 μM dNTPs, 0.6 U Taq DNA polymerase (Boehringer Mannheim), two pairs of primers (one pair for the Ngb gene, another for the b-actin gene used as an internal control). The optimal conditions for amplification (the proportion between the two pairs of primers, temperatures, and cycle numbers) were determined experimentally according to previously established procedures.8 PCR products were separated on 1.2% agarose gels, visualized by ethidium bromide staining, and quantified using a ChemiImage System (Alpha Innotech Corporation).

[1] = tested on: vascular endothelial growth factor; conditions: aortic smooth muscle cells; cited from earlier work
HN33 cells = assay: HN33 cell viability (MTT); type: cell-based, mouse
Protocol: Cell viability was assessed by measuring formazan produced by the reduction of 3-(4,5-dimethylthiazol-2-yl)-2,5-diphenyl tetrazolium bromide (MTT) in viable cells.3 Cells were incubated with 5 mg/ml of MTT (Sigma) at 37° C. for 2 hours. The medium was removed and cells were solubilized with dimethylsufoxide and transferred to 96-well plates. The formazan reduction product was detected by measuring absorbance at 570 nm in a Cytofluor Series 4000 multi-well plate-reader (PerSeptive Biosystems, Framingham, Mass.). Results were expressed as a percentage of control absorbance, measured in normoxic cultures, after subtracting background absorbance (measured in freeze-thawed cultures) from all values.

[2] = tested on: transient forebrain ischemia; conditions: rats, direct administration after transient forebrain ischemia; cited from earlier work
cGMP = assay: Intracellular cGMP content in HN33 cells (enzyme immunoassay); type: cell-based, mouse
Protocol: HN33 cells (4×10^4 cells in 100 μl) were plated on 96-well microtiter plates and treated with 50 μM hemin for 2, 8, 16, or 24 hours. Intracellular cGMP concentrations were measured in quadruplicate using a cGMP enzyme-immunoassay system (Amersham Pharmacia).

hemin
cells producing a high level of hemoglobin (K562 cells): more than 50%
maximal increase in neuroglobin protein level (Ngb protein; 50 μM hemin, 8-24 hours): about 4 fold
persistence of Ngb protein induction (Ngb protein; HN33 cells, 50 μM hemin): at least 3 days
time at which induction of Ngb protein was evident (Ngb protein; HN33 cells, 50 μM hemin): 2 h
induction of Ngb protein (Ngb protein; HN33 cells, 50 μM hemin for up to 3 days): about 4 times basal levels of expression
maximal increase in neuroglobin mRNA level (Ngb mRNA; 50 μM hemin, 8-24 hours): about 4 fold
Ngb mRNA levels (Northern blot) (Ngb mRNA; HN33 cells, 50 μM hemin for 16 hours): about 4 fold
Maximal induction of Ngb mRNA expression (RT-PCR, normalized for β-actin) (Ngb mRNA; HN33 cells, hemin 24 h, maximal at 25-50 μM): 4 fold
effect on hypoxic induction of vascular endothelial growth factor [1]: suppress
difference in viability relative to control (HN33 cells; 100 μM hemin, 24 hours, HN33 cells): significant (P<0.05) difference in viability
reduction of cell viability (HN33 cells; 100 μM hemin, HN33 cells, MTT): ~15%
effect on HN33 cell viability (HN33 cells; hemin 0-50 μM for 24 h, or 50 μM for up to 3 days, MTT): no effect on cell viability; also recorded: does not alter HN33 cell viability
neuroprotection: viable neurons in cerebral cortex and striatum [2]: significantly increases the number of viable neurons
cGMP levels by 24 hours (cGMP; 50 μM hemin): returned to near basal levels
increase in cGMP levels (cGMP; 50 μM hemin for 2 to 12 hours): 8- to 15 fold
increase in cGMP levels (summary) (cGMP; hemin): > 10 fold
